Consider 4 compounds from patent US20240408064A1, “RAS INHIBITORS, COMPOSITIONS AND METHODS OF USE THEREOF” (GENETOLEAD INC., priority 2021, published 2024).

“Also recorded” adds a separate entry of the source.

Assay [1] addresses T1, HRas^G12V (Homo sapiens (Human), UniProt P01112, G12V). The assay is described as follows: Dissociation constant by NMR (1H/15N Fast-HSQC, 1H 1D protein-observed). In kind it is binding. The conditions noted are these: HRas^G12V; read-out: NMR Kd.
In assay [2] the target is T1, HRas^G12V. Nature of the assay: Overall binding/activity in the various assays (NMR consensus binding). Put shortly: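 Fragments (240 µM each, pooled) screened against 50 µM HRas^G12V in 25 mM sodium phosphate pH 7.4, 150 mM NaCl, 5 mM MgCl2, 1 mM TCEP-d16 by 1H-decoupled 1D 19F NMR. Hits confirmed by ligand- and protein-observed 1D 1H, STD and T2-CPMG (aggregation check); consensus binding ranked, with 15N HSQC for sites and Kd.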

Assay [3] deals with T2, KRAS^G12D-GDP (Homo sapiens (Human), UniProt P01116, G12D). The assay is described as follows: 19F DLB score, KRAS^G12D-GDP. Also on record: scale not given here. The class given is binding. On the procedure: (§1) Since the fragment library was curated using phosphate buffer, 25 mM sodium phosphate pH 7.4, 150 mM NaCl, 5 mM MgCl2, 1 mM TCEP-d16, 10% D2O Fresh TCEP was used for experiments. Screening was performed using ^1H-decoupled 1D ^19F experiment Bruker experiment (zgfhigqn.2) with 64 scans and a relaxation delay of 5 seconds. 50 μM HRas^G12V and 240 μM of each fragment in pools (mixtures) were used.
(§2) Hit confirmation was performed using the same ^19F experiment as the screen. Ligand-observed 1D ^1H, protein-observed 1D ^1H, ^1H T2-CPMG as well as Saturation Transfer Difference (STD) experiments were also run on the same samples. Ligand-observed 1D ^1H was run using the standard Bruker sequence with excitation sculpting (zgesgp) with a relaxation delay of 10 seconds and 16 scans per spectrum. Protein-observed 1D ^1H was performed using the same sequence with a relaxation delay of 1 second and 256 scans in order to increase the signal-to-noise of the protein resonances, while keeping the experimental time relatively short. The ^1H T2-CPMG experiment employed a modified version of the Bruker 1D ^1H zgesgp experiment with the addition of a CPMG pulse train after the first 90° excitation pulse. Total duration for each spin echo was fixed at 1 ms (τ=500 μs), while the number of echoes in the pulse train was varied according to the total time (T). The number of scans for each spectrum was 4 and eight delay times were run on each sample, ranging from 1 ms to 800 ms.
(§3) The activity of compounds of the invention regarding KRAS^G12D-GDP was measured in the same as in Example 80. The results obtained with the compounds in the various assays described above are depicted in Table 23.

Assay [4] has as its target T2, KRAS^G12D-GDP. Nature of the assay: 19F T2-CPMG score, KRAS^G12D-GDP. The class given is binding. On the procedure:
as §1, §2, §3

Broadly, the Kd is the constant that tells how readily two partners part at equilibrium.

T2 sequence (P01116-2 other isoform, or with tags, fused parts or gaps G12D): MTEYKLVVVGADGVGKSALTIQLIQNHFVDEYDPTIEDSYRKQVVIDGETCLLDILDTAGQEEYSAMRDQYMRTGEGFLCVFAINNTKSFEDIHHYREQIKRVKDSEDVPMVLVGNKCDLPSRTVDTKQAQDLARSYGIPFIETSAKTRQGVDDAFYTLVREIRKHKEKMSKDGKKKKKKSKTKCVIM

Consider `CN(C)CC(=O)Nc1cccc(NC(=O)Cc2c[nH]c3cc(F)ccc23)c1` [compound 10097], for which the Kd at HRas^G12V [1] came to 108 µM. In addition, on HRas^G12V [2], the “Activity ranking on HRas^G12V (in words)” value is listed as “More active; also recorded: Most active”. For the same compound, on KRAS^G12D-GDP [3], the “19F DLB Score” value was 4.36. Also, the “19F T2-CPMG Score” value at KRAS^G12D-GDP [4] is “>LOQ”.
Take `CC(C)N1CCC(NC(=O)Cc2c[nH]c3cc(F)ccc23)CC1` [Compound 10018]: the dissociation constant (Kd) at HRas^G12V [1] was 3030 to 3700 µM. Besides, the “Activity ranking on HRas^G12V (in words)” value on HRas^G12V [2] was “More active”. For the same compound, the “19F DLB Score” value at KRAS^G12D-GDP [3] worked out at 1.73. The “19F T2-CPMG Score” value on KRAS^G12D-GDP [4] is reported as 12.20.
The matching figures for `CN(C)CCOc1cccc(NC(=O)Cc2c[nH]c3cc(F)ccc23)c1` [Compound 10095, N-(3-(2-(dimethylamino)ethoxy)phenyl)-2-(6-fluoro-1H-indol-3-yl)acetamide]: 36 µM, “More active; also recorded: Most active”, 3.56 and “>LOQ”.
The matching figures for `O=C(Cc1c[nH]c2cc(F)ccc12)N1CCC(O)CC1` [Compound 10086]: 2370 to 4000 µM, “More active”, 3.33 and “>LOQ”.
